The values below come from patent publication US20260184749A1, “CARBOHYDRATE BINDING POLYPEPTIDE OF SAVALIA SAVAGLIA” (University of Belgrade, priority 2021, published 2026).

Data set [1] relates to Sava lectin (Savalithsin) from Savalia (Gerardia) savaglia, isoforms SEQ ID NOs: 1, 2, 3 and 4. Put plainly: Isothermal titration calorimetry (ITC) of carbohydrate binding to Sava lectin. The note with it: pH 7.4, 50 mM PBS, 25° C. The source says:
The present inventors have identified, purified and characterised a novel lectin from Savalia (Gerardia) savaglia. The inventors have identified four very closely-related isoforms of this lectin (see Table 1). The sequences of the isoforms are provided as SEQ ID NOs: 1, 2, 3 and 4. SEQ ID NO: 1 is the sequence of the most prevalent (dominant) form expressed in Savalia (Gerardia) savaglia (as determined by mass spectrometry). […] The lectin may be referred to herein as Sava lectin or Savalithsin. This term may be used to refer to a mixture comprising the four isoforms, which may optionally include other isoforms or variants as defined herein. References to recombinantly produced Savalithsin typically refer to the dominant form.
Isothermal titration calorimetry (ITC) experiments were performed with Sava lectin at pH 7.4 in 50 mM phosphate buffered saline (PBS) at 25° C. and in the presence of different D-carbohydrates (mono- and di-saccharides).
Thermodynamic parameters of mannose and methyl mannoside binding were obtained by algorithm for global fitting of the model function to the experimental ITC thermograms based on the iterative non-linear Levenberg-Marquardt χ2 regression procedure. The best agreement between model and experimental data was achieved when two binding sites per protein molecule were assumed.
In general terms: ITC needs no label: the signal is the heat of the interaction.

Data set [2] shares this test system. As to the kind of experiment: Turbidimetric activity assay of carbohydrate binding to Sava lectin. The procedure:
Turbidimetric activity assay was performed to confirm ITC results. […] This small binding constant produces small heat effect that cannot be observed by ITC.

Data set [3] deals with Sava lectin (Savalithsin) from Savalia (Gerardia) savaglia, isoforms SEQ ID NOs: 1, 2, 3 and 4. As to the kind of experiment: Microscale thermophoresis (MST) of carbohydrate binding to Sava lectin. The source says: Microscale thermophoresis (MST) experiments confirmed binding of mannose and methyl mannoside. […] Two Km values indicate existence of two binding sites that could be different of allosterically connected.
A general note: MST reads how a fluorescent partner responds to local heating, with and without ligand.

Data set [4] concerns Sava lectin (Savalithsin) from Savalia (Gerardia) savaglia, isoforms SEQ ID NOs: 1, 2, 3 and 4. As to the kind of experiment: Differential scanning calorimetry (DSC) of Sava lectin in the presence of carbohydrates. The note with it: for Melting point (Tm) of Sava lectin in the presence of carbohydrate: PBS pH 7.4, Sava lectin alone Tm 79.17° C. It counts as binding. The procedure: Experiments with differential scanning calorimetry confirmed binding of mannose and methyl mannoside, see discussion of thermal stability below.
Thermal stability was determined by differential scanning calorimetry (DSC). Experiments were performed in PBS at pH 7.4. […] Increased Tm indicates stabilization of protein structure in the presence of bound carbohydrate.
A general note: Differential scanning calorimetry records heat flow against a reference as temperature is scanned.

Data set [5] concerns the molecule itself. Put plainly: MALDI-TOF mass spectrometry of Sava lectin (self-association, oligomers) [top].

Like-named read-outs stand apart in the source and are kept apart here.

With `OC[C@H]1OC(O)[C@H](O)[C@@H](O)[C@@H]1O` (stereo partly drawn) [D-glucose], in data set [1], the “Binding observed using ITC” value is given as “did not observed binding”. Besides, in data set [2], the “Binding (turbidimetric activity assay)” value is “weak binding”. Besides, the “Binding constant compared with D-mannose” value in data set [2] (relative to D-mannose) is given as “two orders of magnitude lower than for D-mannose”.
For the molecule `OC[C@H]1OC(O)[C@@H](O)[C@@H](O)[C@@H]1O` (stereo partly drawn) [D-mannose], in data set [1], the “Binding constant (Kb)” value was determined as 2514 M⁻¹. Besides, the Kd is 0.0265 mM in data set [3] (first of two binding events, read-out: Dissociation constant (Kd), first binding event) and 11.2 mM in data set [3] (second of two binding events, read-out: Dissociation constant (Kd), second binding event). Besides, the “Melting point (Tm) of Sava lectin in the presence of carbohydrate” value in data set [4] is 79.63 °C.
For the molecule `CC(=O)N[C@H]1C(O)O[C@H](CO)[C@H](O)[C@@H]1O` (stereo partly drawn) [N-acetyl galactosamine], the “Binding observed using ITC” value in data set [1] is given as “did not observed binding”.
With `CC(=O)N[C@H]1C(O)O[C@H](CO)[C@@H](O)[C@@H]1O` (stereo partly drawn) [N-acetyl glucosamine], in data set [1], the “Binding observed using ITC” value is on record as “did not observed binding”.
With `O=C[C@@H](O)[C@H](O)[C@H](O)CO` [arabinose], the “Binding observed using ITC” value in data set [1] is recorded as “did not observed binding”.
Regarding `C[C@@H]1OC(O)[C@@H](O)[C@H](O)[C@@H]1O` (stereo partly drawn) [fucose], the “Binding observed using ITC” value in data set [1] was “did not observed binding”.
Take `OC[C@H]1OC(O)[C@H](O)[C@@H](O)[C@H]1O` (stereo partly drawn) [galactose]: the “Binding observed using ITC” value in data set [1] is recorded as “did not observed binding”. Also, the “Tm of Sava lectin in the presence of carbohydrate, compared with Sava lectin only” value in data set [4] (PBS pH 7.4) is “the same as in the experiment with Sava lectin only”.
As to `OC[C@H]1O[C@@H](O[C@H]2[C@H](O)[C@@H](O)C(O)O[C@@H]2CO)[C@H](O)[C@@H](O)[C@H]1O` (stereo partly drawn) [lactose], the “Binding observed using ITC” value in data set [1] is on record as “did not observed binding”.
On the same count and under the same terms, next, `OC[C@@H](O)[C@@H](O)[C@H](O)[C@H](O)CO` [mannitol]: “did not observed binding”.
Take `CO[C@H]1O[C@H](CO)[C@@H](O)[C@H](O)[C@@H]1O` [methyl alpha-D-mannoside]: the “Binding constant (Kb)” value in data set [1] was 1270 M⁻¹. Moreover, the Kd in data set [3] (read-out: Dissociation constant (Kd)) came to 13.2 mM. Further, the “Melting point (Tm) of Sava lectin in the presence of carbohydrate” value in data set [4] was found to be 79.55 °C.
Consider `OC[C@H]1O[C@H](OC[C@H]2O[C@H](O[C@]3(CO)O[C@H](CO)[C@@H](O)[C@@H]3O)[C@H](O)[C@@H](O)[C@@H]2O)[C@H](O)[C@@H](O)[C@H]1O` [raffinose], for which the “Binding observed using ITC” value in data set [1] is recorded as “did not observed binding”.
With `C[C@@H]1OC(O)[C@H](O)[C@H](O)[C@H]1O` (stereo partly drawn) [rhamnose], the “Binding observed using ITC” value in data set [1] is on record as “did not observed binding”.

B1: Sava lectin (isolated and purified from the coral Savalia (Gerardia) savaglia) (other)
chain: SNLRWVATSGGKVPEHAVVGGENFSGEVLYVARVRINSGLTPGKMAPSYRVAHTSYGGKEFYKSDYELITNPGWKSHIEWKYHEGHSKPTNAVLGGTDQRNLYVARFMYGDGHMLSGKVLFDYGKAYLGYNNKEYESTKFYVLVEHPSW
notes: No glycosylation or other post-translational modification was observed; also called Savalithsin
Turning to B1, the binding result in data set [5] is reported as “binds”.

Broadly, the Kd is the concentration at which binding is half-saturated.
